Experimental data taken from the supplement of paper PMC10883282.
± gives the standard deviation of the averaged measurements.

Test system: HS729
Assay: relative viability vs DMSO control (72 h) (fraction); higher = more viable cells
Procedure, shortened: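 After seeding at densities set for 80–90% confluence in 384-well plates, sarcoma cell lines waited 24 h before 2.5 µl of serially diluted compound was added. Source plates held 10 mM down to 0.0002 mM. Plates were incubated 72 h at 37 °C with 5% CO2, with 0.1% DMSO vehicle and a 5 µM positive control, and relative viability was taken from ATPLite as percent growth averaged over up to triplicate wells, with 1 set as full and 0 as none.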

Row | Structure (SMILES) | relative viability (0.00017 µM) | relative viability (0.00051 µM) | relative viability (0.00152 µM) | relative viability (0.00457 µM) | relative viability (0.01372 µM) | relative viability (0.04115 µM) | relative viability (0.1235 µM) | relative viability (0.3704 µM) | relative viability (1.111 µM) | relative viability (3.333 µM) | relative viability (10 µM) | relative viability (2 pM) | relative viability (5 pM) | relative viability (15 pM) | relative viability (50 pM) | relative viability (0.00014 µM) | relative viability (0.00041 µM) | relative viability (0.0012 µM) | relative viability (0.0037 µM) | relative viability (0.011 µM) | relative viability (200 fM) | relative viability (600 fM)
1 | CC1(C)CNc2cc(NC(=O)c3cccnc3NCc3ccncc3)ccc21 [Motesanib] | 0.999 ± 0.075 | 1.03 ± 0.077 | 1 ± 0.077 | 1 ± 0.043 | 0.992 ± 0.037 | 1.03 ± 0.064 | 0.955 ± 0.073 | 0.932 ± 0.046 | 0.872 ± 0.051 | 0.828 ± 0.019 | 0.779 ± 0.065 |  |  |  |  |  |  |  |  |  |  | 
2 | C[C@@H](c1ccc2nccn2c1)n1nnc2ncc(-c3cnn(C)c3)nc21 [Volitinib] | 0.947 ± 0.029 | 0.978 ± 0.013 | 0.978 ± 0.031 | 1.02 ± 0.043 | 0.938 ± 0.021 | 0.952 ± 0.066 | 0.955 ± 0.061 | 1 ± 0.053 | 1 ± 0.08 | 0.97 ± 0.034 | 1.03 ± 0.042 |  |  |  |  |  |  |  |  |  |  | 
3 | Cc1ccc(NC(=O)c2ccc(CN3CCN(C)CC3)cc2)cc1Nc1nc(-c2cccnc2)cs1 [Masitinib] | 1.06 ± 0.064 | 1.06 ± 0.043 | 0.984 ± 0.066 | 1.03 ± 0.085 | 1.03 ± 0.037 | 1.04 ± 0.063 | 0.969 ± 0.038 | 0.913 ± 0.04 | 0.851 ± 0.054 | 0.576 ± 0.018 | 0.139 ± 0.022 |  |  |  |  |  |  |  |  |  |  | 
4 | C=CC(=O)Nc1cccc(Oc2nc(Nc3ccc(N4CCN(C)CC4)cc3)nc3ccsc23)c1 [Olmutinib] | 1.02 ± 0.095 | 1.03 ± 0.1 | 0.996 ± 0.094 | 0.988 ± 0.07 | 0.922 ± 0.05 | 0.968 ± 0.11 | 0.958 ± 0.093 | 0.904 ± 0.097 | 0.925 ± 0.079 | 0.887 ± 0.051 | 0.713 ± 0.059 |  |  |  |  |  |  |  |  |  |  | 
5 | CC(C)(C)c1cc(NC(=O)Nc2ccc(-c3cn4c(n3)sc3cc(OCCN5CCOCC5)ccc34)cc2)no1 [Quizartinib] | 1.03 ± 0.1 | 0.973 ± 0.047 | 1 ± 0.11 | 0.976 ± 0.12 | 1.01 ± 0.084 | 0.953 ± 0.062 | 1.01 ± 0.12 | 0.873 ± 0.069 | 0.894 ± 0.12 | 0.873 ± 0.061 | 0.929 ± 0.061 |  |  |  |  |  |  |  |  |  |  | 
6 | CC(C)NC(=O)C1CCC(n2c(NC(=O)c3ccc(F)cc3)nc3ccc(CN4CCC(C(C)(C)O)CC4)cc32)CC1 (centres undefined) [Belizatinib] | 0.93 ± 0.018 | 0.952 ± 0.042 | 0.967 ± 0.057 | 0.945 ± 0.027 | 0.949 ± 0.061 | 0.9059 ± 0.0065 | 0.836 ± 0.043 | 0.695 ± 0.041 | 0.602 ± 0.04 | 0.526 ± 0.02 | 0.42 ± 0.053 |  |  |  |  |  |  |  |  |  |  | 
7 | Cc1ccc(F)c(NC(=O)Nc2ccc(-c3cccc4[nH]nc(N)c34)cc2)c1 [Linifanib] | 1.02 ± 0.065 | 0.958 ± 0.072 | 0.937 ± 0.052 | 0.943 ± 0.077 | 0.958 ± 0.052 | 0.896 ± 0.033 | 0.83 ± 0.033 | 0.783 ± 0.018 | 0.7353 ± 0.0054 | 0.762 ± 0.049 | 0.689 ± 0.055 |  |  |  |  |  |  |  |  |  |  | 
8 | Cc1nc(NC(=O)N2CCC[C@H]2C(N)=O)sc1-c1ccnc(C(C)(C)C(F)(F)F)c1 [Alpelisib] | 1 ± 0.028 | 0.935 ± 0.034 | 0.922 ± 0.087 | 0.884 ± 0.042 | 0.838 ± 0.026 | 0.785 ± 0.067 | 0.745 ± 0.06 | 0.68 ± 0.041 | 0.577 ± 0.024 | 0.536 ± 0.039 | 0.445 ± 0.0061 |  |  |  |  |  |  |  |  |  |  | 
9 | C[C@]1(O)C[C@@H](c2nc(-c3ccc4ccc(-c5ccccc5)nc4c3)c3c(N)nccn32)C1 [Linsitinib] | 1.04 ± 0.051 | 1.02 ± 0.073 | 0.996 ± 0.053 | 0.969 ± 0.026 | 0.921 ± 0.033 | 0.842 ± 0.012 | 0.757 ± 0.047 | 0.655 ± 0.07 | 0.588 ± 0.047 | 0.577 ± 0.055 | 0.465 ± 0.049 |  |  |  |  |  |  |  |  |  |  | 
10 | C=CC(=O)N1CCC([C@@H]2CCNc3c(C(N)=O)c(-c4ccc(Oc5ccccc5)cc4)nn32)CC1 [Zanubrutinib] | 1.06 ± 0.046 | 1.07 ± 0.06 | 1.05 ± 0.061 | 1.05 ± 0.072 | 1.06 ± 0.082 | 1.04 ± 0.099 | 1.06 ± 0.062 | 1.03 ± 0.095 | 0.961 ± 0.094 | 1.02 ± 0.074 | 0.873 ± 0.077 |  |  |  |  |  |  |  |  |  |  | 
11 | CCc1cc2c(cc1N1CCC(N3CCOCC3)CC1)C(C)(C)c1[nH]c3cc(C#N)ccc3c1C2=O [Alectinib] | 0.923 ± 0.021 | 0.962 ± 0.027 | 0.958 ± 0.035 | 0.938 ± 0.073 | 0.972 ± 0.047 | 0.987 ± 0.021 | 0.937 ± 0.029 | 0.941 ± 0.045 | 1 ± 0.058 | 0.933 ± 0.022 | 1.02 ± 0.024 |  |  |  |  |  |  |  |  |  |  | 
12 | C[C@@H]1CCN(C(=O)CC#N)C[C@@H]1N(C)c1ncnc2[nH]ccc12 [Tofacitinib] | 1.03 ± 0.017 | 0.957 ± 0.029 | 0.936 ± 0.031 | 0.927 ± 0.036 | 0.889 ± 0.036 | 0.835 ± 0.065 | 0.802 ± 0.029 | 0.828 ± 0.013 | 0.861 ± 0.03 | 0.846 ± 0.02 | 0.75 ± 0.059 |  |  |  |  |  |  |  |  |  |  | 
13 | CC[C@H](Nc1ncnc2[nH]cnc12)c1nc2cccc(F)c2c(=O)n1-c1ccccc1 [Idelalisib] | 1.07 ± 0.061 | 1.07 ± 0.073 | 1.03 ± 0.055 | 1.05 ± 0.023 | 1.01 ± 0.038 | 0.987 ± 0.018 | 0.947 ± 0.049 | 0.919 ± 0.035 | 0.905 ± 0.05 | 0.843 ± 0.036 | 0.704 ± 0.011 |  |  |  |  |  |  |  |  |  |  | 
14 | COc1cc2nccc(Oc3ccc(NC(=O)Nc4cc(C)on4)c(Cl)c3)c2cc1OC [Tivozanib] | 0.898 ± 0.058 | 0.883 ± 0.018 | 0.9572 ± 0.0089 | 0.923 ± 0.046 | 0.921 ± 0.052 | 0.882 ± 0.017 | 0.869 ± 0.043 | 0.891 ± 0.044 | 0.894 ± 0.05 | 0.817 ± 0.0084 | 0.722 ± 0.02 |  |  |  |  |  |  |  |  |  |  | 
15 | COc1cc2c(cc1O)CCN[C@]21CS[C@@H]2c3c(OC(C)=O)c(C)c4c(c3[C@H](COC1=O)N1[C@@H]2[C@H]2c3c(cc(C)c(OC)c3O)C[C@@H]([C@@H]1O)N2C)OCO4 [Trabectedin] |  |  |  |  |  |  |  |  |  |  |  | 0.999 ± 0.056 | 0.952 ± 0.019 | 0.957 ± 0.067 | 0.859 ± 0.044 | 0.557 ± 0.15 | 0.137 ± 0.14 | 0.183 ± 0.041 | 0.166 ± 0.0097 | 0.124 ± 0.0083 | 1.02 ± 0.048 | 1.05 ± 0.034
16 | N#CC[C@H](C1CCCC1)n1cc(-c2ncnc3[nH]ccc23)cn1 [Ruxolitinib] | 1.07 ± 0.028 | 1.07 ± 0.028 | 1.06 ± 0.028 | 1.05 ± 0.027 | 1.02 ± 0.068 | 1.06 ± 0.031 | 1.01 ± 0.031 | 0.989 ± 0.035 | 0.938 ± 0.086 | 0.894 ± 0.1 | 0.764 ± 0.041 |  |  |  |  |  |  |  |  |  |  | 
17 | Cc1cc(C)c(/C=C2\C(=O)Nc3ccccc32)[nH]1 [Semaxanib] | 0.893 ± 0.093 | 0.895 ± 0.11 | 0.895 ± 0.074 | 0.889 ± 0.093 | 0.871 ± 0.086 | 0.883 ± 0.097 | 0.853 ± 0.078 | 0.821 ± 0.069 | 0.762 ± 0.07 | 0.747 ± 0.057 | 0.613 ± 0.036 |  |  |  |  |  |  |  |  |  |  | 
18 | O=C(Cc1ccc(-c2ccc(OCCN3CCOCC3)cc2)cn1)NCc1ccccc1 [KX2-391] | 1.09 ± 0.061 | 1.02 ± 0.096 | 0.943 ± 0.046 | 0.959 ± 0.069 | 0.912 ± 0.019 | 0.792 ± 0.064 | 0.623 ± 0.018 | 0.562 ± 0.024 | 0.521 ± 0.029 | 0.501 ± 0.048 | 0.475 ± 0.019 |  |  |  |  |  |  |  |  |  |  | 
19 | COc1cc2c(Oc3ccc4[nH]c(C)cc4c3F)ncnc2cc1OCCCN1CCCC1 [Cediranib] | 0.964 ± 0.077 | 0.991 ± 0.077 | 0.954 ± 0.044 | 0.962 ± 0.086 | 0.991 ± 0.045 | 0.968 ± 0.057 | 0.94 ± 0.059 | 0.8 ± 0.1 | 0.665 ± 0.039 | 0.834 ± 0.024 | 0.83 ± 0.026 |  |  |  |  |  |  |  |  |  |  | 
